Source: patent US11045447B2, “Methods for inducing synaptogenesis with synaptic growth factor activating compounds” ([…], INC., priority 2018, dated 2021)
Several values for one entry are separate records, joined by “and”; a condition that tells them apart may be missing. Equal values may be shown once. Entries after “also recorded” stand apart in the source; their conditions may differ.

Tests used:
Assay type in all cases: in vivo, human
[1] = test system: patients with advanced Alzheimer's disease; experiment: Safety and tolerability (treatment emergent adverse events) in the same trial; conditions: 40 μg iv, 12 weeks
Method: Adults aged 55-85 with cognitive deficits present for at least 2 years, MMSE-2 of 4-15, inclusive, and a diagnosis of Alzheimer's dementia were randomly assigned to receive blinded intravenous infusions of bryostatin 24 μg or matching placebo at weeks 0 and 1. The 24 μg and 48 μg doses during the first two weeks of the 20 and 40 μg protocols respectively were considered to be “loading” doses thought to be beneficial from prior experience with Compassionate Use trial patients. Nelson et al., Alzheimers Dis. 2017 58: 521-535. In one arm, the two 24 μg doses were followed by 20 μg doses at weeks 5, 7, 9 and 11 with the Severe Impairment Battery (SIB) measured at baseline and weeks 5, 9, 13, and 15. In a second arm, the two 48 μg doses at weeks 0 and 1 were followed by 40 μg doses at weeks 5, 7, 9, and 11 with the SIB measured at baseline and weeks 5, 9, 13, and 15. The subjects were stratified by MMSE-2 in two strata: Stratum 1 (4-9) and Stratum 2 (10-15). The first primary endpoint was safety and tolerability, assessed by treatment emergent adverse events (TEAEs) with a sample size of 150 subjects randomized 1:1:1. Although efficacy was the secondary measure, the primary efficacy endpoint was SIB improvement at week 13 evaluated using a mixed model for repeated measures. A secondary efficacy endpoint was ADCS-ADL Sev. […]

[2] = test system: patients with advanced Alzheimer's disease; experiment: ADCS-ADL-SIV (secondary efficacy endpoint) in the same trial
Method: (§1) Adults aged 55-85 with cognitive deficits present for at least 2 years, MMSE-2 of 4-15, inclusive, and a diagnosis of Alzheimer's dementia were randomly assigned to receive blinded intravenous infusions of bryostatin 24 μg or matching placebo at weeks 0 and 1. The 24 μg and 48 μg doses during the first two weeks of the 20 and 40 μg protocols respectively were considered to be “loading” doses thought to be beneficial from prior experience with Compassionate Use trial patients. Nelson et al., Alzheimers Dis. 2017 58: 521-535. In one arm, the two 24 μg doses were followed by 20 μg doses at weeks 5, 7, 9 and 11 with the Severe Impairment Battery (SIB) measured at baseline and weeks 5, 9, 13, and 15. In a second arm, the two 48 μg doses at weeks 0 and 1 were followed by 40 μg doses at weeks 5, 7, 9, and 11 with the SIB measured at baseline and weeks 5, 9, 13, and 15. The subjects were stratified by MMSE-2 in two strata: Stratum 1 (4-9) and Stratum 2 (10-15). The first primary endpoint was safety and tolerability, assessed by treatment emergent adverse events (TEAEs) with a sample size of 150 subjects randomized 1:1:1. Although efficacy was the secondary measure, the primary efficacy endpoint was SIB improvement at week 13 evaluated using a mixed model for repeated measures. A secondary efficacy endpoint was ADCS-ADL Sev. The primary safety population included all subjects who received at least 1 dose of study drug, and efficacy was evaluated in a modified intent to treat (mITT) population that received at least 1 dose of study drug and had at least one treatment evaluation. Efficacy was evaluated both as a primary end-point in the modified intent-to-treat (mITT) population and also as a primary end point in a Completers population that included all patients that completed the entire protocols as described above.

[3] = test system: patients with advanced Alzheimer's disease; experiment: Severe Impairment Battery (SIB) in double-blind, randomized, placebo-controlled trial; design: key to SIB Total LS Mean change from baseline (MMRM) / SIB Total LS Mean change (MMRM with memantine covariate) / SIB Delta from baseline, Mean (unadjusted): change from baseline in SIB total score; low scores = greater impairment; conditions: for SIB Total Difference vs. Placebo (MMRM) / SIB Total LS Mean change from baseline (MMRM): 20 μg iv; for SIB Delta from baseline, Mean (unadjusted): Low dose (20)
Method: In a double-blind, randomized, placebo-controlled trial, bryostatin was administered by intravenous infusion (˜45 minutes) to patients with advanced Alzheimer's disease for 12 weeks at doses of 20 or 40 μg. Randomization was stratified at baseline by severe (MMSE-2, 4-9) and moderate (MMSE-2, 10-15) dementia, wherein MMSE-2 refers to Mini-Mental State Examination, version 2. The MMSE or Folstein test is a 30-point questionnaire that is used extensively in clinical and research settings to measure cognitive impairment. Low scores indicate greater impairment. Version 2 of the MMSE was published in 2010, expanding the original questionnaire's usefulness in populations with milder forms of cognitive impairment. […] Importantly, this cognitive improvement persisted and increased 30 days after all bryostatin dosing had been completed.
as §1
The SIB efficacy measurement at 30 days (week 15) post dosing—after all dosing had been completed (last dose administered at week 11)—was a pre-specified exploratory endpoint. Week 15 results were only included for subjects who were not re-randomized. The mixed model assumes missing at random, but order of enrollment in the trial was not random. Since order of enrollment was not random, the assumption of missing at random is not met. For this reason, only including week 15 for those who were not re-randomized is an appropriate way to estimate week 15 results, but not an appropriate way to estimate results at the earlier visits. For this reason, estimates up through week 13 are from a mixed model that only included data through week 13 and the week 15 estimates are from a separate model. Results were generated using a mixed model with repeated measures predicting change from baseline in SIB Total Score as the response variable and using baseline score, baseline MMSE strata, treatment, visit (categorical), and visit (treatment) as predictors. […]

[4] = Week 15 (30 days post dosing), Completer
[5] = Week 15 (30 days post dosing), FAS
[6] = 20 μg, Week 5, Completer, With Memantine
[7] = 20 μg, Week 5, Completer, Without Memantine
[8] = 20 μg, Week 5, FAS, With Memantine
[9] = 20 μg, Week 5, FAS, Without Memantine
[10] = 20 μg, Week 9, Completer, With Memantine
[11] = 20 μg, Week 9, Completer, Without Memantine
[12] = 20 μg, Week 9, FAS, With Memantine
[13] = 20 μg, Week 9, FAS, Without Memantine
[14] = 20 μg, Week 13, Completer, With Memantine
[15] = 20 μg, Week 13, Completer, Without Memantine
[16] = 20 μg, Week 13, FAS, With Memantine
[17] = 20 μg, Week 13, FAS, Without Memantine
[18] = 20 μg, Week 15, Completer, With Memantine
[19] = 20 μg, Week 15, Completer, Without Memantine
[20] = 20 μg, Week 15, FAS, With Memantine
[21] = 20 μg, Week 15, FAS, Without Memantine

CCC/C=C/C=C/C(=O)O[C@H]1/C(=C/C(=O)OC)C[C@H]2C[C@H]([C@@H](C)O)OC(=O)C[C@H](O)C[C@@H]3C[C@H](OC(C)=O)C(C)(C)[C@](O)(C[C@@H]4C/C(=C/C(=O)OC)C[C@H](/C=C/C(C)(C)[C@]1(O)O2)O4)O3 [Bryostatin, bryostatin-1]
Safety results [1]: more adverse events
ADCS-ADL, subgroups with and without memantine as background SOC therapy (in words) ([2]; 20 μg): not significantly different above placebo
ADCS-ADL difference from placebo ([2]; 20 μg, completers group): 1.6
ADCS-ADL difference from placebo ([2]; 20 μg, mITT group): 1.4
ADCS-ADL efficacy (in words) ([2]; 40 μg dose): significant for the 20 μg but not the 40 μg dose
SIB versus baseline and placebo (in words) ([3]; 20 μg dose, throughout the 13-week trial): sustained improvement in SIB
SIB Total Difference vs. Placebo (MMRM) ([3]; Week 5, Completer): 4.00
SIB Total LS Mean change from baseline (MMRM) ([3]; Week 5, Completer): 1.67
SIB Total Difference vs. Placebo (MMRM) ([3]; Week 5, FAS): 2.96
SIB Total LS Mean change from baseline (MMRM) ([3]; Week 5, FAS): 1.18
SIB Total Difference vs. Placebo (MMRM) ([3]; Week 9, Completer): 1.85
SIB Total LS Mean change from baseline (MMRM) ([3]; Week 9, Completer): 1.28
SIB Total Difference vs. Placebo (MMRM) ([3]; Week 9, FAS): 1.03
SIB Total LS Mean change from baseline (MMRM) ([3]; Week 9, FAS): 0.94
SIB Total Difference vs. Placebo (MMRM) ([3]; Week 13, Completer): 2.63
SIB Total LS Mean change from baseline (MMRM) ([3]; Week 13, Completer): 1.51
SIB Total Difference vs. Placebo (MMRM) ([3]; Week 13, Completer, listed as bryostatin): 2.6
SIB Total Difference vs. Placebo (MMRM) ([3]; Week 13, FAS): 1.94
SIB Total LS Mean change from baseline (MMRM) ([3]; Week 13, FAS): 1.16
SIB Total Difference vs. Placebo (MMRM) [3, 4]: 4.09
SIB Total LS Mean change from baseline (MMRM) [3, 4]: 1.96
SIB Total Difference vs. Placebo (MMRM) ([3]; Week 15 (30 days post dosing), Completer, listed as bryostatin): 4.0 and 4.09
SIB Total Difference vs. Placebo (MMRM) [3, 5]: 3.59
SIB Total LS Mean change from baseline (MMRM) [3, 5]: 1.77
SIB Total Difference vs. Placebo (MMRM with memantine covariate) [3, 6]: 2.94
SIB Total LS Mean change (MMRM with memantine covariate) [3, 6]: 0.61
SIB Total Difference vs. Placebo (MMRM with memantine covariate) [3, 7]: 5.38
SIB Total LS Mean change (MMRM with memantine covariate) [3, 7]: 3.22
SIB Total Difference vs. Placebo (MMRM with memantine covariate) [3, 8]: 1.96
SIB Total LS Mean change (MMRM with memantine covariate) [3, 8]: 0.26
SIB Total Difference vs. Placebo (MMRM with memantine covariate) [3, 9]: 4.48
SIB Total LS Mean change (MMRM with memantine covariate) [3, 9]: 2.74
SIB Total Difference vs. Placebo (MMRM with memantine covariate) [3, 10]: 0.90
SIB Total LS Mean change (MMRM with memantine covariate) [3, 10]: −0.16
SIB Total Difference vs. Placebo (MMRM with memantine covariate) [3, 11]: 2.66
SIB Total LS Mean change (MMRM with memantine covariate) [3, 11]: 3.34
SIB Total Difference vs. Placebo (MMRM with memantine covariate) [3, 12]: 0.09
SIB Total LS Mean change (MMRM with memantine covariate) [3, 12]: −0.33
SIB Total Difference vs. Placebo (MMRM with memantine covariate) [3, 13]: 2.08
SIB Total LS Mean change (MMRM with memantine covariate) [3, 13]: 2.95
SIB Total Difference vs. Placebo (MMRM with memantine covariate) [3, 14]: 0.56
SIB Total LS Mean change (MMRM with memantine covariate) [3, 14]: −0.39
SIB Total Difference vs. Placebo (MMRM with memantine covariate) [3, 15]: 5.53
SIB Total LS Mean change (MMRM with memantine covariate) [3, 15]: 4.22
SIB Total Difference vs. Placebo (MMRM with memantine covariate) [3, 16]: −0.14
SIB Total LS Mean change (MMRM with memantine covariate) [3, 16]: −0.60
SIB Total Difference vs. Placebo (MMRM with memantine covariate) [3, 17]: 5.11
SIB Total LS Mean change (MMRM with memantine covariate) [3, 17]: 3.83
SIB Total Difference vs. Placebo (MMRM with memantine covariate) [3, 18]: 1.45
SIB Total LS Mean change (MMRM with memantine covariate) [3, 18]: −0.71
SIB Total Difference vs. Placebo (MMRM with memantine covariate) [3, 19]: 6.36
SIB Total LS Mean change (MMRM with memantine covariate) [3, 19]: 6.24
SIB Total Difference vs. Placebo (MMRM with memantine covariate) [3, 20]: 0.79
SIB Total LS Mean change (MMRM with memantine covariate) [3, 20]: −0.83
SIB Total Difference vs. Placebo (MMRM with memantine covariate) [3, 21]: 5.93
SIB Total LS Mean change (MMRM with memantine covariate) [3, 21]: 5.88
Mean slope of SIB over time, Weighted Slope ([3]; 20 μg, weighted by number of non-zero SIB scores, second column group (memantine exposed, stratum not given)): −0.099
SIB versus baseline and placebo (in words) ([3]; 40 μg dose): lack of efficacy; also recorded: no SIB improvement
SIB Delta from baseline, Mean (unadjusted) ([3]; Ave of Week 13 and 15, Memantine Exposed Patients, FAS): −0.727
SIB Delta from baseline, Mean (unadjusted) ([3]; Ave of Week 13 and 15, Memantine Treatment-Naïve Patients, FAS): 5.406
SIB Delta from baseline, Mean (unadjusted) ([3]; Week 5, Memantine Exposed Patients, FAS): 0.077
SIB Delta from baseline, Mean (unadjusted) ([3]; Week 5, Memantine Treatment-Naïve Patients, FAS): 3.444
SIB Delta from baseline, Mean (unadjusted) ([3]; Week 9, Memantine Exposed Patients, FAS): −0.087
SIB Delta from baseline, Mean (unadjusted) ([3]; Week 9, Memantine Treatment-Naïve Patients, FAS): 3.467
SIB Delta from baseline, Mean (unadjusted) ([3]; Week 13, Memantine Exposed Patients, FAS): −0.545
SIB Delta from baseline, Mean (unadjusted) ([3]; Week 13, Memantine Treatment-Naïve Patients, FAS): 4.500
Treatment effect on SIB at 13/15 weeks from baseline (ANCOVA coefficient, 20 μg vs placebo) ([3]; Memantine Exposed, adjusted for Base SIB, MMSE-2): −0.620
Treatment effect on SIB at 13/15 weeks from baseline (ANCOVA coefficient, 20 μg vs placebo) ([3]; Memantine Exposed, adjusted for Baseline SIB): −0.531
Treatment effect on SIB at 13/15 weeks from baseline (ANCOVA coefficient, 20 μg vs placebo) ([3]; Memantine Naïve, adjusted for Base SIB, MMSE-2): 5.923
Treatment effect on SIB at 13/15 weeks from baseline (ANCOVA coefficient, 20 μg vs placebo) ([3]; Memantine Naïve, adjusted for Baseline SIB): 5.426
SIB improvement (in words) ([3]; patients on memantine, week 13 or 15): no SIB improvement
